Measurements from the NIST ThermoML archive (doi:10.1016/j.jct.2011.10.014).
Numbers after ± are expanded uncertainties.

Assay: molar heat capacity at constant pressure
Conditions: 101.33 kPa, Crystal, Vacuum adiabatic calorimetry

O=C([O-])[O-].[Pb+2] [lead(II) carbonate]
Conditions	molar heat capacity at constant pressure [J/K/mol]
4.385 K	0.052 ± 0.0081
4.419 K	0.0555 ± 0.0081
4.738 K	0.06322 ± 0.0082
4.754 K	0.06377 ± 0.0082
5 K	0.0763 ± 0.011
5.09 K	0.08024 ± 0.0083
5.104 K	0.08019 ± 0.0083
5.342 K	0.09726 ± 0.0084
5.363 K	0.09954 ± 0.0085
5.585 K	0.1145 ± 0.0086
5.612 K	0.1163 ± 0.0086
5.83 K	0.1316 ± 0.0088
5.868 K	0.1342 ± 0.0088
6.078 K	0.1519 ± 0.0092
6.126 K	0.1554 ± 0.0092
6.413 K	0.1893 ± 0.0099
6.471 K	0.1928 ± 0.01
6.838 K	0.2414 ± 0.011
6.899 K	0.256 ± 0.011
7.267 K	0.3073 ± 0.013
7.34 K	0.322 ± 0.013
7.699 K	0.3863 ± 0.015
7.78 K	0.4013 ± 0.015
8.134 K	0.4809 ± 0.017
8.222 K	0.5005 ± 0.018
8.575 K	0.5882 ± 0.02
8.668 K	0.606 ± 0.02
9.015 K	0.7106 ± 0.023
9.108 K	0.7478 ± 0.024
9.458 K	0.85 ± 0.027
9.558 K	0.8902 ± 0.028
9.903 K	1.01 ± 0.032
10 K	1.048 ± 0.018
10.01 K	1.055 ± 0.033
10.57 K	1.286 ± 0.04
10.68 K	1.33 ± 0.041
11.46 K	1.695 ± 0.051
11.57 K	1.751 ± 0.053
12.36 K	2.155 ± 0.065
12.47 K	2.216 ± 0.066
13.27 K	2.654 ± 0.079
13.38 K	2.746 ± 0.082
14.19 K	3.244 ± 0.096
14.31 K	3.33 ± 0.098
15 K	3.776 ± 0.036
15.13 K	3.866 ± 0.11
15.25 K	3.962 ± 0.12
16.07 K	4.511 ± 0.13
16.2 K	4.595 ± 0.13
17.03 K	5.162 ± 0.15
17.16 K	5.276 ± 0.15
17.99 K	5.902 ± 0.17
18.12 K	6.01 ± 0.18
18.95 K	6.635 ± 0.19
19.09 K	6.747 ± 0.2
19.93 K	7.37 ± 0.21
20 K	7.42 ± 0.052
20.06 K	7.466 ± 0.22
21.41 K	8.521 ± 0.25
21.54 K	8.639 ± 0.25
23.39 K	10.08 ± 0.29
23.53 K	10.19 ± 0.29
25 K	11.38 ± 0.06
25.4 K	11.68 ± 0.34
27.41 K	13.32 ± 0.38
29.43 K	14.96 ± 0.43
30 K	15.38 ± 0.07
31.45 K	16.55 ± 0.48
33.46 K	18.13 ± 0.52
35 K	19.37 ± 0.08
35.48 K	19.73 ± 0.57
36.7 K	20.7 ± 0.59
37.49 K	21.32 ± 0.61
38.5 K	22.12 ± 0.64
40 K	23.28 ± 0.09
40.51 K	23.65 ± 0.12
42.52 K	25.25 ± 0.13
44.53 K	26.66 ± 0.14
45 K	27.01 ± 0.09
46.54 K	28.07 ± 0.15
48.55 K	29.49 ± 0.15
50 K	30.59 ± 0.1
50.55 K	30.94 ± 0.16
52.55 K	32.41 ± 0.17
54.56 K	33.8 ± 0.17
55 K	33.98 ± 0.11
56.56 K	35.05 ± 0.18
58.57 K	36.13 ± 0.18
60 K	37.15 ± 0.11
60.52 K	37.48 ± 0.19
62.4 K	38.61 ± 0.2
64.2 K	39.65 ± 0.2
65 K	40.1 ± 0.12
65.95 K	40.66 ± 0.21
67.63 K	41.57 ± 0.21
69.27 K	42.35 ± 0.21
70 K	42.8 ± 0.13
71.59 K	43.59 ± 0.22
74.62 K	45.09 ± 0.23
75 K	45.29 ± 0.13
77.67 K	46.51 ± 0.23
79.9 K	47.55 ± 0.24
80 K	47.58 ± 0.14
80.72 K	47.85 ± 0.14
83.04 K	48.9 ± 0.14
85 K	49.68 ± 0.14
86.1 K	50.14 ± 0.15
89.18 K	51.33 ± 0.15
90 K	51.61 ± 0.25
92.25 K	52.45 ± 0.21
95 K	53.38 ± 0.25
95.34 K	53.5 ± 0.21
98.43 K	54.49 ± 0.22
100 K	55 ± 0.26
101.53 K	55.5 ± 0.22
104.63 K	56.35 ± 0.22
107.75 K	57.22 ± 0.22
110 K	57.87 ± 0.26
110.87 K	58.11 ± 0.22
114 K	58.89 ± 0.22
117.14 K	59.63 ± 0.23
120 K	60.33 ± 0.26
120.28 K	60.41 ± 0.23
123.43 K	61.11 ± 0.23
126.59 K	61.8 ± 0.23
129.77 K	62.5 ± 0.23
130 K	62.53 ± 0.26
132.94 K	63.15 ± 0.23
136.13 K	63.79 ± 0.23
139.31 K	64.43 ± 0.23
140 K	64.55 ± 0.26
142.51 K	65.03 ± 0.24
145.71 K	65.61 ± 0.24
148.92 K	66.19 ± 0.24
150 K	66.42 ± 0.27
152.13 K	66.84 ± 0.24
155.35 K	67.35 ± 0.24
158.57 K	67.88 ± 0.24
160 K	68.14 ± 0.27
161.81 K	68.4 ± 0.24
165.05 K	68.98 ± 0.24
168.31 K	69.49 ± 0.24
170 K	69.74 ± 0.27
171.58 K	70.05 ± 0.24
174.85 K	70.51 ± 0.25
178.14 K	70.92 ± 0.25
180 K	71.28 ± 0.27
181.44 K	71.38 ± 0.25
184.74 K	71.87 ± 0.25
188.04 K	72.41 ± 0.25
190 K	72.72 ± 0.27
191.34 K	72.91 ± 0.25
194.61 K	73.4 ± 0.25
197.88 K	73.88 ± 0.25
200 K	74.07 ± 0.27
201.13 K	74.3 ± 0.25
204.38 K	74.74 ± 0.26
207.61 K	75.11 ± 0.26
210 K	75.37 ± 0.28
210.84 K	75.52 ± 0.26
214.06 K	75.82 ± 0.26
217.25 K	76.33 ± 0.26
220 K	76.66 ± 0.28
220.45 K	76.69 ± 0.26
223.63 K	77.07 ± 0.26
226.8 K	77.37 ± 0.26
